Values after ≈ are worked out from the molar mass of the structure shown.
What was measured:
[1] = Test of antimicrobial materials for deodorant activity; conditions: compared with currently available materials
Excerpt: Cosmetic Chemists, 19, 611-626 (1968) and Cowen, "Relative Merits of `In Use` and Laboratory Methods for the Evaluation of Antimicrobial Products, "J. Soc. Cosmetic Chemists, 25, 307-323 (1974).

β-lyase = assay: Sniff vial test: malodor formation from precursors by whole Staphylococcus haemolyticus cells (beta-lyase inhibition); assay type: cell-based; conditions: whole Staphylococcus haemolyticus cells, sniff vial assay
Description: BCA was tested for its ability to prevent Staphylococcus haemolyticus from metabolizing sweat to form malodor. Log-phase cultures of Staphylococcus haemolyticus were incubated with various concentrations of BCA (31-0.625 mM) in phosphate buffer (pH 6.8) for 30 minutes at 35° C. The cell/BCA mixture was then added to a "sniff vial" containing malodor precursors and incubated at 35° C. for an additional 30 minutes. Malodor compounds were then extracted from the mixture with chloroform and malodor was judged by spotting 10 μl of chloroform extracts onto bibulous paper and smelling. […] In contrast, the β-lyase inhibitor aminooxyacetic acid (AOA) consistently prevents malodor in the above assay at concentrations of 5.0 mM.

[2] = test system: Staphylococcus haemolyticus; assay: Minimum inhibitory concentration (MIC) in axillary bacteria, Staphylococcus strain; assay type: cell-based; conditions: overnight at 35° C., lowest concentration without turbidity, read-out: MIC
Description: (§1) In vitro experiments were conducted in order to determine the ability of several bacterial cell wall synthesis inhibitors to inhibit the growth of axillary bacteria. The minimum inhibitory concentrations (MIC) of β-chloro-D-alanine (BCA), and D-cycloserine were determined in Staphylococcus (Staphylococcus haemolyticus) and Coryneform strains of axillary bacteria as follows: Frozen stock cultures were thawed out and 50 μl of Staphylococcus haemolyticus or 100 μl of Coryneform bacteria were inoculated into 5.0 ml of nutrient media. Bacteria were incubated at 35° C. overnight to produce cultures in log phase growth. A series of tubes was set up into which serial dilutions of BCA or triclosan in nutrient media were added in the range of 0.1 to 0.0001 wt/v % (where 1 g/100 ml=1 wt/v %). The tubes were inoculated with 50 μl of log phase Staphylococcus haemolyticus or Coryneform cultures and incubated at 35° C. overnight. […] The minimum bactericidal concentration (MBC) was determined by adding 50 μl from each clear solution of the MIC experiment into 5.0 ml of fresh nutrient media and incubating overnight at 37° C. […] The MIC of BCA was thus determined to be 0.1 wt/v % and 0.001 wt/v % in Staphylococcus haemolyticus and Coryneforms, respectively. The MIC of D-cycloserine was thus determined to be 0.01 wt/v % and 0.005 wt/v % in Staphylococcus haemolyticus and Coryneforms, respectively. By comparison, the MIC of the common antibacterial deodorant compound triclosan is 0.01 wt/v % and 0.1 wt/v % in Staphylococcus haemolyticus and Coryneforms, respectively.

Coryneform bacteria = assay: Minimum inhibitory concentration (MIC) in axillary bacteria, Coryneform strain; assay type: cell-based, Coryneform strains of axillary bacteria; conditions: Coryneforms; overnight at 35° C.; lowest concentration without turbidity; read-out: MIC
Description: as §1

axillary malodor [3] = assay: Example 5: axillary malodor evaluation by odor judges, 1.0% D-cycloserine vs 0.3% triclosan; assay type: in vivo, human; design: key to Post-Application 24 Hour Drop from Control: drop in odor score vs control; scale 0 (no odor) to 10 (very intense); conditions: for Post-Application 24 Hour Drop from Control / Judges' Malodor Evaluation (score): 1.0% D-cycloserine, 0.3% triclosan; for Judges' Malodor Evaluation (score): scale 0 to 10
Description: (§2) BCA was dissolved in a mixture of 60% propylene glycol and 40% water at a final concentration of 1.0%. The pH of the solution was adjusted to about 6.25 with 10 N NaOH. Thirty-nine female panelists applied 0.5 ml of this test solution to either the right or left axilla and 0.5 ml of a comparative solution of 60% propylene glycol and 40% water to the other. The side of application of the test or comparative solutions was assigned in a random fashion. Twenty-four hours after application, each side of the panelists' axilla was judged for odor by a panel of trained odor judges on a scale of 0 (no odor) to 10 (very intense, disagreeable odor). This procedure was performed on four consecutive days. […] Analysis of the clinical results is summarized below:
A test product containing 1.0% D-cycloserine in 60% propylene glycol/40% water was compared to a product containing 0.3% triclosan in 60% propylene glycol/40% water by application to 60 test subjects according to the procedure of Example 4. […] All differences were highly significant.

Staphylococcus cells = conditions: as disclosed in U.S. Pat. No. 5,487,886; cited from earlier work
axillary malodor [4] = assay: Example 6: axillary malodor evaluation by odor judges, 1.0% β-chloro-D-alanine vs 1.0% β-chloro-L-alanine; assay type: in vivo, human; design: key to 24 Hour Drop from Control / A-B (drop), D-BCA minus L-BCA: drop in odor score on 0 (no odor) to 10 (very intense) scale; conditions: 1.0% in 60% propylene glycol/40% water
Description: as §2
A test product containing 1.0% β-chloro-D-alanine (BCA)[…] in 60% propylene glycol/40% water was compared to a comparative product containing 1.0% β-chloro-L-alanine in 60% propylene glycol/40% water by application to 50 female test subjects according to the procedure of Example 4.

[5] = biological target: T1, serine-palmitoyl transferase (Mus musculus, UniProt P97363); conditions: topical application; Holleran et al. 1991; cited from earlier work
T1 construct: host or cells: skin, in vivo after topical application
T1 sequence (P97363 1-560): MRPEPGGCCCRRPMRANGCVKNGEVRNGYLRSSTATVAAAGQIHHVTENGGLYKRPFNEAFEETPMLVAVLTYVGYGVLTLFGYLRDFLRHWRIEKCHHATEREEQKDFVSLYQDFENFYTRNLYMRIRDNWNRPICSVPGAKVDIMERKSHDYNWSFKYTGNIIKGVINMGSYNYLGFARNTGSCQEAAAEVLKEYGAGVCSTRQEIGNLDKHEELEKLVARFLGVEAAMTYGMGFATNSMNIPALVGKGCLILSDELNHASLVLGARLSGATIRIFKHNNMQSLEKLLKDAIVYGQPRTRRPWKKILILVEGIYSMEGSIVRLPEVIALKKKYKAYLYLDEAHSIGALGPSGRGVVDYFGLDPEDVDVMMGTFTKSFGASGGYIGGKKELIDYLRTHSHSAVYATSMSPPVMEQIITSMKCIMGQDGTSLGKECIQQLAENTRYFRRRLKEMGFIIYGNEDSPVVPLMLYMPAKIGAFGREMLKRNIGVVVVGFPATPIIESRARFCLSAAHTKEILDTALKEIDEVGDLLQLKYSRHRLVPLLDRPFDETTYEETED
T1 sequence (O35704 1-473 partner): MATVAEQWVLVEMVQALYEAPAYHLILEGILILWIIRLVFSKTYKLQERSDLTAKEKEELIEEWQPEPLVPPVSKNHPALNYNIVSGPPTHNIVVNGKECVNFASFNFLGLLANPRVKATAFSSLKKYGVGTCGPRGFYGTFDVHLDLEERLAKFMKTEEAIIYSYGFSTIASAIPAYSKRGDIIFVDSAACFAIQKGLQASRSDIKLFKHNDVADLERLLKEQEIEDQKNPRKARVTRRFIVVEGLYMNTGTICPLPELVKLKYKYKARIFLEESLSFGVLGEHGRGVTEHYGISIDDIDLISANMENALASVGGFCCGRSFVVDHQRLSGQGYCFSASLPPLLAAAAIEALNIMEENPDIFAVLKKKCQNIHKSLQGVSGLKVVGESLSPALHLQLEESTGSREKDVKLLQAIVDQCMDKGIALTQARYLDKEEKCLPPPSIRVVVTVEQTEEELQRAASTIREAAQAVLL

[6] = topical application; Holleran et al. 1991; cited from earlier work

CCCCCCCCCCCCCCCCCC[N+](C)(C)CCC[Si](OC)(OC)OC.[Cl-] [3-(trimethoxysilyl)propyloctadecyldimethyl ammonium chloride]
Deodorant activity [1]: no improvement over currently available materials was observed

NOCC(=O)O [AOA, aminooxyacetic acid, reference compound]
Concentration that consistently prevents malodor (β-lyase): 5.0 mM

NC1CONC1=O [D-cycloserine]
MIC [2]: 100 µg/mL (≈ 979 µM) | MIC (Coryneform bacteria): 50 µg/mL (≈ 490 µM) | Inhibition of axillary malodor, 1.0% D-cycloserine product versus 0.3% triclosan (axillary malodor [3]; all measurements and the composite, odor judges): superior to 0.3% triclosan | Post-Application 24 Hour Drop from Control (axillary malodor [3]; composite): 1.13 | Judges' Malodor Evaluation (score) (axillary malodor [3]; composite): 3.61 | Post-Application 24 Hour Drop from Control (axillary malodor [3]; measurement day 1): 1.1 | Judges' Malodor Evaluation (score) (axillary malodor [3]; measurement day 1): 3.64 | Post-Application 24 Hour Drop from Control (axillary malodor [3]; measurement day 2): 0.99 | Judges' Malodor Evaluation (score) (axillary malodor [3]; measurement day 2): 3.75 | Post-Application 24 Hour Drop from Control (axillary malodor [3]; measurement day 3): 1.22 | Judges' Malodor Evaluation (score) (axillary malodor [3]; measurement day 3): 3.53 | Post-Application 24 Hour Drop from Control (axillary malodor [3]; measurement day 4): 1.22 | Judges' Malodor Evaluation (score) (axillary malodor [3]; measurement day 4): 3.52

NC1CONC1=O [L-cycloserine]
Effect on the growth of Staphylococcus cells in culture (Staphylococcus cells): no inhibitory effect

[H]/N=C(\N/C(=N/[H])NCCCCCCNC(=N)NC(=N)Nc1ccc(Cl)cc1)Nc1ccc(Cl)cc1 [chlorhexidine]
Deodorant activity [1]: no improvement over currently available materials was observed

OO [hydrogen peroxide]
Deodorant activity [1]: no improvement over currently available materials was observed

CC(=O)OCC(COC(C)=O)OC(C)=O [triacetin]
Deodorant activity [1]: no improvement over currently available materials was observed

Oc1cc(Cl)ccc1Oc1ccc(Cl)cc1Cl [triclosan, reference compound]
MIC [2]: 100 µg/mL (≈ 345 µM) | MIC (Coryneform bacteria): 1000 µg/mL (≈ 3450 µM) | Post-Application 24 Hour Drop from Control (axillary malodor [3]; composite): 0.65 | Judges' Malodor Evaluation (score) (axillary malodor [3]; composite): 4.07 | Post-Application 24 Hour Drop from Control (axillary malodor [3]; measurement day 1): 0.67 | Judges' Malodor Evaluation (score) (axillary malodor [3]; measurement day 1): 4 | Post-Application 24 Hour Drop from Control (axillary malodor [3]; measurement day 2): 0.46 | Judges' Malodor Evaluation (score) (axillary malodor [3]; measurement day 2): 4.26 | Post-Application 24 Hour Drop from Control (axillary malodor [3]; measurement day 3): 0.74 | Judges' Malodor Evaluation (score) (axillary malodor [3]; measurement day 3): 3.97 | Post-Application 24 Hour Drop from Control (axillary malodor [3]; measurement day 4): 0.72 | Judges' Malodor Evaluation (score) (axillary malodor [3]; measurement day 4): 4

N[C@@H](CCl)C(=O)O [β-chloro-L-alanine, reference compound]
24 Hour Drop from Control (axillary malodor [4]; composite): 1.083 | 24 Hour Drop from Control (axillary malodor [4]; post-application measurement 1): 0.913 | 24 Hour Drop from Control (axillary malodor [4]; post-application measurement 2): 1.040 | 24 Hour Drop from Control (axillary malodor [4]; post-application measurement 3): 1.013 | 24 Hour Drop from Control (axillary malodor [4]; post-application measurement 4): 1.333 | Inhibition of serine-palmitoyl transferase in the skin [5]: irreversibly inhibits | Recovery of skin barrier function in vivo [6]: alters recovery of skin barrier function

Source: patent US6060043A, “Deodorant composition containing D-amino acid” (The Gillette Company, priority 1998, dated 2000)
